Experiments:
[1] = test system: recombinant NL4-3 virus (nef section replaced with Renilla luciferase gene) in MT-2 cells; experiment: HIV cell culture assay (antiviral activity, luciferase readout); type: cell-based; settings: Renilla, NL43
Experimental: HIV cell culture assay—MT-2 cells, 293T cells and the proviral DNA clone of NL4-3 virus were obtained from the NIH AIDS Research and Reference Reagent Program. MT-2 cells were propagated in RPMI 1640 media supplemented with 10% heat inactivated fetal bovine serum (FBS), 100 μg/ml penicillin G and up to 100 units/mL streptomycin. The 293T cells were propagated in DMEM media supplemented with 10% heat inactivated FBS, 100 μg/mL penicillin G and 100 μg/mL streptomycin. A recombinant NL4-3 proviral clone, in which a section of the nef gene was replaced with the Renilla luciferase gene, was used to make the reference virus used in these studies. The recombinant virus was prepared through transfection of the recombinant NL4-3 proviral clone into 293T cells using Transit-293 Transfection Reagent from Mirus Bio LLC (Madison, Wis.). Supernatent was harvested after 2-3 days and the amount of virus present was titered in MT-2 cells using luciferase enzyme activity as a marker by measuring luciferase enzyme activity. Luciferase was quantitated using the EnduRen Live Cell Substrate from Promega (Madison, Wis.). Antiviral activities of compounds toward the recombinant virus were quantified by measuring luciferase activity in MT-2 cells infected for 4-5 days with the recombinant virus in the presence of serial dilutions of the compound.
The 50% effective concentration (EC50) was calculated by using the exponential form of the median effect equation where (Fa)=1/[1+(ED50/drug conc.)^m] (Johnson V A, Byington R T. Infectivity Assay. In Techniques in HIV Research. ed. Aldovini A, Walker B D. 71-76. New York: Stockton Press. 1990). Curve fitting and analysis were performed with ActivityBase XE Runner software version 9.1.0.4 using model 203 (ID Business Solutions, LTD, Guildford, UK).

[2] = Compound cytotoxicity, XTT-based colorimetric assay; type: cell-based; settings: human; uninfected MT2 cells, day 4, XTT-based colorimetric assay
Experimental: Compound cytotoxicity and the corresponding CC50 values were determined using the same protocol as described in the antiviral assay except that uninfected cells were used. Cytotoxicity was assessed on day 4 in uninfected MT2 cells by using a XTT (2,3-bis[2-Methoxy-4-nitro-5-sulfophenyl]-2H-tetrazolium-5-carboxyanilide inner salt)-based colorimetric assay (Sigma-Aldrich, St Louis, Mo.).

With `CCOc1ncc(-c2cc(=O)n(-c3ccc(Cl)c4c(NS(C)(=O)=O)nn(C)c34)c([C@H](Cc3cc(F)cc(F)c3)NC(=O)Cn3nc(C(F)F)c4c3C(F)(F)[C@@H]3C[C@H]43)n2)cn1` (atropisomer, axis not shown; (P)) [Example 11, N-((S)-1-((1P)-1-(4-chloro-1-methyl-3-(methylsulfonamido)-1H-indazol-7-yl)-2′-ethoxy-6-oxo-1,6-dihydro-[4,5′-bipyrimidin]-2-yl)-2-(3,5-difluorophenyl)ethyl)-2-((3bS,4aR)-3-(difluoromethyl)-5,5-difluoro-3b,4,4a,5-tetrahydro-1H-cyclopropa[3,4]cyclopenta[1,2-c]pyrazol-1-yl)acetamide] the EC50 [1] was 0.81 nM and the CC50 at 4 days [2] was greater than 100 nM.

In the case of `CCOc1cnc(-c2cc(=O)n(-c3ccc(Cl)c4c(NS(C)(=O)=O)nn(C)c34)c([C@H](Cc3cc(F)cc(F)c3)NC(=O)Cn3nc(C(F)F)c4c3C(F)(F)[C@@H]3C[C@H]43)n2)nc1` (atropisomer, axis not shown; (aR)) [Example 14, N-((S)-1-((1′P)-1′-(4-chloro-1-methyl-3-(methylsulfonamido)-1H-indazol-7-yl)-5-ethoxy-6′-oxo-1′,6′-dihydro-[2,4′-bipyrimidin]-2′-yl)-2-(3,5-difluorophenyl)ethyl)-2-((3bS,4aR)-3-(difluoromethyl)-5,5-difluoro-3b,4,4a,5-tetrahydro-1H-cyclopropa[3,4]cyclopenta[1,2-c]pyrazol-1-yl)acetamide], the EC50 [1] is reported as 0.042 nM and the CC50 at 4 days [2] is reported as greater than 100 nM.

For `Cc1cc(C)nc(-c2cc(=O)n(-c3ccc(Cl)c4c(NS(=O)(=O)C5CC5)nn(CC(F)F)c34)c([C@H](Cc3cc(F)cc(F)c3)NC(=O)Cn3nc(C(F)F)c4c3C(F)(F)[C@@H]3C[C@H]43)n2)n1` (atropisomer, axis not shown; (aR)) [Example 34, N-((S)-1-(1′-(4-chloro-3-(cyclopropanesulfonamido)-1-(2,2-difluoroethyl)-1H-indazol-7-yl)-4,6-dimethyl-6′-oxo-1′,6′-dihydro-[2,4′-bipyrimidin]-2′-yl)-2-(3,5-difluorophenyl)ethyl)-2-((3bS,4aR)-3-(difluoromethyl)-5,5-difluoro-3b,4,4a,5-tetrahydro-1H-cyclopropa[3,4]cyclopenta[1,2-c]pyrazol-1-yl)acetamide], the EC50 [1] was 0.24 nM and the CC50 at 4 days [2] was greater than 100 nM.

For `Cn1nc(NS(C)(=O)=O)c2c(Cl)ccc(-n3c([C@H](Cc4cc(F)cc(F)c4)NC(=O)Cn4nc(C(F)F)c5c4C(F)(F)[C@@H]4C[C@H]54)nc(-c4cnc(C(C)(F)F)s4)cc3=O)c21` (atropisomer, axis not shown; (P)) [Example 15, N-((S)-1-((1P)-1-(4-chloro-1-methyl-3-(methylsulfonamido)-1H-indazol-7-yl)-4-(2-(1,1-difluoroethyl)thiazol-5-yl)-6-oxo-1,6-dihydropyrimidin-2-yl)-2-(3,5-difluorophenyl)ethyl)-2-((3bS,4aR)-3-(difluoromethyl)-5,5-difluoro-3b,4,4a,5-tetrahydro-1H-cyclopropa[3,4]cyclopenta[1,2-c]pyrazol-1-yl)acetamide], the EC50 [1] was 0.59 nM and the CC50 at 4 days [2] was greater than 100 nM.

With `COc1cncc(-c2cc(=O)n(-c3ccc(Cl)c4c(NS(=O)(=O)C5CC5)nn(CC(F)F)c34)c([C@H](Cc3cc(F)cc(F)c3)NC(=O)Cn3nc(C(F)F)c4c3C(F)(F)[C@@H]3C[C@H]43)n2)n1` (atropisomer, axis not shown; (P)) [Example 40, N-((S)-1-((1P)-1-(4-chloro-3-(cyclopropanesulfonamido)-1-(2,2-difluoroethyl)-1H-indazol-7-yl)-4-(6-methoxypyrazin-2-yl)-6-oxo-1,6-dihydropyrimidin-2-yl)-2-(3,5-difluorophenyl)ethyl)-2-((3bS,4aR)-3-(difluoromethyl)-5,5-difluoro-3b,4,4a,5-tetrahydro-1H-cyclopropa[3,4]cyclopenta[1,2-c]pyrazol-1-yl)acetamide] the EC50 [1] was 0.6 nM and the CC50 at 4 days [2] was greater than 100 nM.

In the case of `O=C(Cn1nc(C(F)F)c2c1C(F)(F)[C@@H]1C[C@H]21)N[C@@H](Cc1cc(F)cc(F)c1)c1nc(-c2ccc(C(F)(F)F)nc2)cc(=O)n1-c1ccc(Cl)c2c(NS(=O)(=O)C3CC3)nn(CC(F)F)c12` (atropisomer, axis not shown; (P)) [Example 38, N-((S)-1-((1P)-1-(4-chloro-3-(cyclopropanesulfonamido)-1-(2,2-difluoroethyl)-1H-indazol-7-yl)-6-oxo-4-(6-(trifluoromethyl)pyridin-3-yl)-1,6-dihydropyrimidin-2-yl)-2-(3,5-difluorophenyl)ethyl)-2-((3bS,4aR)-3-(difluoromethyl)-5,5-difluoro-3b,4,4a,5-tetrahydro-1H-cyclopropa[3,4]cyclopenta[1,2-c]pyrazol-1-yl)acetamide], the EC50 [1] is reported as 0.39 nM and the CC50 at 4 days [2] is reported as greater than 100 nM.

`COC(C)(C)CCc1cc(=O)n(-c2ccc(Cl)c3c(NS(C)(=O)=O)nn(C)c23)c([C@H](Cc2cc(F)cc(F)c2)NC(=O)Cn2nc(C(F)F)c3c2C(F)(F)[C@@H]2C[C@H]32)n1` (atropisomer, axis not shown; (P)) [Example 10, N-((S)-1-((1P)-1-(4-chloro-1-methyl-3-(methylsulfonamido)-1H-indazol-7-yl)-4-(3-methoxy-3-methylbutyl)-6-oxo-1,6-dihydropyrimidin-2-yl)-2-(3,5-difluorophenyl)ethyl)-2-((3bS,4aR)-3-(difluoromethyl)-5,5-difluoro-3b,4,4a,5-tetrahydro-1H-cyclopropa[3,4]cyclopenta[1,2-c]pyrazol-1-yl)acetamide] showed an EC50 [1] of 0.079 nM and a CC50 at 4 days [2] greater than 100 nM.

Work on `O=C(Cn1nc(C(F)F)c2c1C(F)(F)[C@@H]1C[C@H]21)N[C@@H](Cc1cc(F)cc(F)c1)c1nc(-c2ccc(Cl)cn2)cc(=O)n1-c1ccc(Cl)c2c(NS(=O)(=O)C3CC3)nn(CC(F)F)c12` (atropisomer, axis not shown; (P)) [Example 35, N-((S)-1-((1P)-1-(4-chloro-3-(cyclopropanesulfonamido)-1-(2,2-difluoroethyl)-1H-indazol-7-yl)-4-(5-chloropyridin-2-yl)-6-oxo-1,6-dihydropyrimidin-2-yl)-2-(3,5-difluorophenyl)ethyl)-2-((3bS,4aR)-3-(difluoromethyl)-5,5-difluoro-3b,4,4a,5-tetrahydro-1H-cyclopropa[3,4]cyclopenta[1,2-c]pyrazol-1-yl)acetamide] yielded an EC50 [1] of 0.72 nM and a CC50 at 4 days [2] greater than 100 nM.

Work on `CCOc1ccc(-c2cc(=O)n(-c3ccc(Cl)c4c(NS(=O)(=O)C5CC5)nn(CC(F)F)c34)c([C@H](Cc3cc(F)cc(F)c3)NC(=O)Cn3nc(C(F)F)c4c3C(F)(F)[C@@H]3C[C@H]43)n2)cn1` (atropisomer, axis not shown; (P)) [Example 37, N-((S)-1-((1P)-1-(4-chloro-3-(cyclopropanesulfonamido)-1-(2,2-difluoroethyl)-1H-indazol-7-yl)-4-(6-ethoxypyridin-3-yl)-6-oxo-1,6-dihydropyrimidin-2-yl)-2-(3,5-difluorophenyl)ethyl)-2-((3bS,4aR)-3-(difluoromethyl)-5,5-difluoro-3b,4,4a,5-tetrahydro-1H-cyclopropa[3,4]cyclopenta[1,2-c]pyrazol-1-yl)acetamide] yielded an EC50 [1] of 3.7 nM and a CC50 at 4 days [2] greater than 100 nM.

With `O=C(Cn1nc(C(F)F)c2c1C(F)(F)[C@@H]1C[C@H]21)N[C@@H](Cc1cc(F)cc(F)c1)c1nc(-c2nccc(C(F)(F)F)n2)cc(=O)n1-c1ccc(Cl)c2c(NS(=O)(=O)C3CC3)nn(CC(F)F)c12` (atropisomer, axis not shown; (aR)) [Example 46, N-((S)-1-((1′P)-1′-(4-chloro-3-(cyclopropanesulfonamido)-1-(2,2-difluoroethyl)-1H-indazol-7-yl)-6′-oxo-4-(trifluoromethyl)-1′,6′-dihydro-[2,4′-bipyrimidin]-2′-yl)-2-(3,5-difluorophenyl)ethyl)-2-((3bS,4aR)-3-(difluoromethyl)-5,5-difluoro-3b,4,4a,5-tetrahydro-1H-cyclopropa[3,4]cyclopenta[1,2-c]pyrazol-1-yl)acetamide] the EC50 [1] was 0.05 nM and the CC50 at 4 days [2] was greater than 100 nM.

Compound `Cn1nc(NS(C)(=O)=O)c2c(Cl)ccc(-n3c([C@H](Cc4cc(F)cc(F)c4)NC(=O)Cn4nc(C(F)F)c5c4C(F)(F)[C@@H]4C[C@H]54)nc(-c4nccc(C(F)(F)F)n4)cc3=O)c21` (atropisomer, axis not shown; (aR)) [Example 6, N-((S)-1-((1′P)-1′-(4-chloro-1-methyl-3-(methylsulfonamido)-1H-indazol-7-yl)-6′-oxo-4-(trifluoromethyl)-1′,6′-dihydro-[2,4′-bipyrimidin]-2′-yl)-2-(3,5-difluorophenyl)ethyl)-2-((3bS,4aR)-3-(difluoromethyl)-5,5-difluoro-3b,4,4a,5-tetrahydro-1H-cyclopropa[3,4]cyclopenta[1,2-c]pyrazol-1-yl)acetamide] has an EC50 [1] of 0.054 nM and a CC50 at 4 days [2] greater than 100 nM.
